# In article PMC12636028, “Rate-Tunable, Metal-Mediated Amide Bond Cleavage for the Controlled Release of Pharmaceuticals” (Journal of the American Chemical Society, 2025):
# Read-outs that look alike come from different tables or passages of the source.
# Experiments:
# [1] = type: in vitro ADME; conditions: mouse, plasma
# Description: (§1) The cleavage of the radiolabeled conjugates was monitored
# (§2) tube. […] After centrifugation at […]
# [2] = type: physicochemical; conditions: buffer, pH 7.4
# Description: as §1, §2
# [3] = for half-life of model tripeptide: buffer, pH 7.4; for autolytic release of [67Ga]Ga(NOTA): 67Ga-radiolabeled
# Description: 4.1 Radiolabeling with 68Ga and Cleavage Assay in HEPES buffer
# 68Ga-chloride was obtained from the University of Wisconsin Radiopharmaceutical Production Facility, at
# an average specific activity of 20 mCi/mL. For radio-labeling of model tripeptides and Ahx-KuE peptide
# conjugates, a 35 μL aliquot containing 0.7 mCi of 68GaCl3 was added to the ligand (10 nmol, 265 µL) in
# 0.067 M of sodium acetate (NaOAc) buffer pH 4.5. Radiolabeling was completed after 15 minutes at
# room temperature. The pH of the solution was then adjusted to 7.4 by pH 7.4 1 M HEPES buffer.
# radiolabeled conjugates were further characterized with radio-HPLC; if the radiochemical yield was
# <98%, a chromatographic purification of the crude radiolabeling mixture was performed. The cleavage of
# the radiolabeled conjugates was monitored via radio-HPLC at 80 °C and pH 7.4.
# 67Ga-citrate was purchased from Jubilant Radiopharma at an average specific activity of 140.0 MBq/mL.
# The 67Ga-citrate solution was first converted to 67GaCl using an established solid phase extraction
# protocol. The resulting converted 67GaCl3 fraction with the specific activity of 962 MBq/mL was used for
# radiolabeling. For radio-labeling of model tripeptides and Ahx-KuE peptide conjugates, a 25 μL aliquot
# containing 0.45 mCi of 67GaCl3 was added to the ligand (10 nmol, 110 µL) in 0.15 M of sodium acetate
# (NaOAc) buffer pH 4.5. Radiolabeling was completed after 10 minutes at room temperature. The pH of
# the solution was then adjusted to 7.4 by adding pH 7.4 1 M HEPES buffer (final concentration: 0.25 M).
# The radiolabeled conjugates were further characterized with radio-HPLC; if the radiochemical yield was
# the radiolabeled conjugates was monitored via radio-HPLC at 37 °C and 80 °C at pH 7.4.
# For radio-labeling of model tripeptides and Ahx-KuE peptide conjugates, a 25 μL aliquot containing 0.3
# mCi of 67GaCl3 was added to the ligand (10 nmol, 110 µL) in 0.15 M of sodium acetate (NaOAc) buffer
# pH 4.5. Radiolabeling was completed after 10 minutes at room temperature. The radiolabeled complexes
# were further characterized by radio-HPLC. The pH of the solution was then adjusted to 7.4 by adding pH
# 7.4 1M HEPES buffer. Into the buffered mixture was added equal volume of mouse plasma (buffered
# radiolabeled complex : mouse plasma 1:1). The cleavage of the radiolabeled conjugates was monitored
# via radio-HPLC at 37 °C. At each time point, an aliquot of 20 – 40 µL sample was removed from the
# tube. Plasma protein was precipitated by adding 20 – 40 µL of cold acetonitrile. After centrifugation at
# 4000 rpm for 10 minutes, the supernatant was collected and diluted in 40 – 70 µL H2O for radio-HPLC
# [4] = cleavage assay of cold (natural metal) model tripeptide complexes, monitored by HPLC; type: physicochemical; conditions: for kobs: Ga complex, pseudo first-order
# Description: Following our previous work focused on N, O acyl shift compatible chelate conjugates, we originally sought to accelerate amide bond cleavage by N-methylation, to enhance the peptide’s leaving group character. We initiated the study by synthesis of a model tripeptide sequence which is capped at the N-terminus by the aza-macrocyclic 1,4,7-triazacyclononane-1,4,7-triacetic acid (NOTA) chelator previously identified as compatible with MMAAC. To this end, tripeptides with the sequence NO2A-X-G-W-NH2 (where X represents the variable complex adjacent amino acid) were constructed. Tryptophan (W) was incorporated as a spectroscopic handle for HPLC monitoring due to its characteristic absorbance at 280 nm, while glycine (G) was included as a short spacer amino acid to minimize the steric influence of W on the metal chelate. Subsequently, chelation with Ga^3+ yielded the corresponding model tripeptide metal complex, [Ga(NO2A)]^+-X-G-W-NH2. The Ga^3+ ion was selected as the gold-standard metal ion since it effectively triggered bond cleavage in the Ser model tripeptide in prior studies, but also formed a thermodynamically and kinetically inert, in vivo compatible metal complex. Following successful complexation and purification, the pH and reaction temperature of the metal complex solution were adjusted to pH 7.4 and 80 °C to initiate cleavage at a readily observable rate (Figure A). Reaction progress was monitored and quantified using high-performance liquid chromatography and mass spectrometry (HPLC-MS, Figure B,C). In the absence of a metal ion, all model tripeptides remained intact at all conditions and temperatures tested (Figures S113–S121). […] In the liquid chromatogram, a second peak with a longer retention time, with the same mass as the reactant, was observed. Previously, we hypothesized that this peak correlated to an intramolecular rearrangement prior to the subsequent amide bond cleavage as part of the N, O-acyl shift reaction.
# 3 Complex synthesis and characterization
# 3.1 General Complexation Protocol and Cleavage Assay Procedure
# A 5 mg aliquot of the compound, 10-25, was dissolved in 500 μL of room-temperature distilled water.
# Two equivalents of the natGa3+salt were added to the solution, which was left to react for 1 hour under room temperature. Full complexation was confirmed by LCMS. The complex was then purified via Sep-Pak C18 short cartridge. The concentration was determined by ICP-OES. The complexes were further characterized via HPLC and HR-ESI-MS.
# Cleavage of the cold model tripeptide complexes (0.75 mM, determined by ICP-OES) was observed under 80 °C and pH 7.4. Aqueous buffer solutions were prepared using 10 mM NaOAc (pH 4.5), 10 mM […]
# The complex was formed in pH 4.5 10 mM NaOAc buffer under room temperature. An aliquot of the complex was placed in an aqueous solution of the desired pH and incubated for 24 hours at 80 °C. The reaction was monitored via analytical HPLC (Method A). […]
# natGallium 2,2'-(7-(2-(benzylamino)-2-oxoethyl)-1,4,7-triazonane-1,4-diyl)diacetic acid, Ga(26). […]
# The concentration of Ga(NO3)3 was determined by ICP-OES. The pH of the solution was adjusted to pH = 5 by adding 4 equivalents of 1 M KOH solution. […]
# natGallium 2,2'-(7-(2-(benzyl(methyl)amino)-2-oxoethyl)-1,4,7-triazonane-1,4-diyl)diacetic acid, [Ga(27)]ClO4. A 15 mg aliquot of compound 27 was dissolved in 500 μL of room temperature distilled […]
# water. […]
# [5] = cleavage assays in H2O and D2O for kinetic isotopic effect; type: physicochemical; conditions: Ga complex 0.75 mM, pH 7.4 HEPES, 80 °C
# Description: Therefore, we conducted additional Kinetic isotopic effect (KIE) measurements for Met (15) and ^NMeMet (18) conjugates, which were chosen to avoid alternative reaction mechanisms. Our experiments determined KIE values (1.46 for Met, 2.81 for ^NMeMet) that imply a secondary KIE, where the proton transfer is not rate-limiting (Figures S262–S265). […] Reaction rates in phosphate buffered saline (PBS) were accelerated, motivating investigation of biologically relevant systems.
# 5.3 Cleavage assays in H2O and D2O for kinetic isotopic effect measurement Cold cleavage assays of [Ga(15)]+ were conducted in H2O and D2O to investigate the kinetic isotopic effects. In an Eppendorf tube, Ga complexes (0.75 mM) were initially prepared in H2O according to general complexation protocol Section 3.1. The solvent was lyophilized, and the complexes were redissolved in D2O. To minimize residual H2O, the D2O was lyophilized and redissolved three times. The Ga complexes were then redissolved in D2O to a final concentration of 0.75 mM. The solution was buffered to pH 7.4 by adding pH 7.4 HEPES buffer. Cleavage reactions were performed at 80 °C and monitored by analytical HPLC.
# Figure S262. Schematic description of preparation and direct complexation procedure of [natGa(15)]+.
# Analytical HPLC chromatograms showing autolytic release of the product, natGa-NOTA, in H2O. The kinetics data was fit using Yt = -kt+Y0 in Excel, where Yt represents the ln([concentration of intact species]) in mM, k represents the pseudo first-order reaction rate in hour-1, t represents the incubation time in hour, and Y0 presents the ln([initial concentration of intact species]) in mM.
# (1 picture or pasted object on this page, not shown here)
# Cold cleavage assays of [Ga(19)]+ were conducted in H2O and D2O to investigate the kinetic isotopic […]
# Figure S264. Schematic description of preparation and direct complexation procedure of [natGa(19)]+.
substance,measurement,setting,value
"68Gallium 2,2'-(7-(2-(((R)-1-((2-(((S)-1-amino-3-(1H-indol-3-yl)-1-oxopropan-2-yl)amino)-2-oxoethyl)amino)-3-hydroxy-1-oxopropan-2-yl)amino)-2-oxoethyl)-1,4,7-triazonane-1,4-diyl)diacetate [[Ga(13)]+]",half-life of model tripeptide,[1],182 h
same,half-life of model tripeptide,[2],5.20 h
same,half-life of model tripeptide,[3],365 h
"68Gallium 2,2'-(7-(2-(((R)-1-((2-(((S)-1-amino-3-(1H-indol-3-yl)-1-oxopropan-2-yl)amino)-2-oxoethyl)amino)-1-oxopropan-2-yl)amino)-2-oxoethyl)-1,4,7-triazonane-1,4-diyl)diacetate [[Ga(12)]+]",cleavage after 6 h,"[4]; natGa complex, pH 7.4, 80 °C",20%
"68Gallium 2,2'-(7-(2-(((R)-1-((2-(((S)-1-amino-3-(1H-indol-3-yl)-1-oxopropan-2-yl)amino)-2-oxoethyl)amino)-3-hydroxy-1-oxopropan-2-yl)(methyl)amino)-2-oxoethyl)-1,4,7-triazonane-1,4-diyl)diacetate [[Ga(16)]+]",half-life of model tripeptide,[1],6.12 h
same,half-life of model tripeptide,[2],0.22 h
same,cleaved after 1 h,"[4]; natGa complex, pH 7.4, 80 °C, after 1 h",100%
same,half-life of model tripeptide,[3],3.65 h
"68Gallium 2,2'-(7-(2-(((R)-1-((2-(((S)-1-amino-3-(1H-indol-3-yl)-1-oxopropan-2-yl)amino)-2-oxoethyl)amino)-4-(methylthio)-1-oxobutan-2-yl)(methyl)amino)-2-oxoethyl)-1,4,7-triazonane-1,4-diyl)diacetate [[Ga(18)]+]",pseudo first-order reaction rate in D2O,[5]; D2O,0.16 h⁻¹
same,pseudo first-order reaction rate in H2O,[5]; H2O,0.45 h⁻¹
same,KIE (kinetic isotopic effect),[5]; H2O vs D2O,2.81
same,half-life of model tripeptide,[1],151 h
same,half-life of model tripeptide,[2],0.92 h
same,krel (relative rate enhancement versus 25 mM pH 7.4 HEPES),"[4]; 25 mM HEPES, pH 7.4, 80 °C",1
same,krel (relative rate enhancement versus 25 mM pH 7.4 HEPES),"[4]; 25 mM PBS, pH 7.4, 80 °C",4.4
same,krel (relative rate enhancement versus 25 mM pH 7.4 HEPES),"[4]; 25 mM PIPES, pH 7.4, 80 °C",1.13
same,krel (relative rate enhancement versus 25 mM pH 7.4 HEPES),"[4]; 250 mM HEPES, pH 7.4, 80 °C",2.44
same,kobs,"[4]; 25 mM HEPES, pH 7.4, 80 °C",0.45 h⁻¹
same,kobs,"[4]; 25 mM PBS, pH 7.4, 80 °C",1.98 h⁻¹
same,kobs,"[4]; 25 mM PIPES, pH 7.4, 80 °C",0.51 h⁻¹
same,kobs,"[4]; 250 mM HEPES, pH 7.4, 80 °C",1.10 h⁻¹
same,half-life of model tripeptide,[3],28.1 h
"68Gallium 2,2'-(7-(2-(((2R,3S)-1-((2-(((S)-1-amino-3-(1H-indol-3-yl)-1-oxopropan-2-yl)amino)-2-oxoethyl)amino)-3-hydroxy-1-oxobutan-2-yl)amino)-2-oxoethyl)-1,4,7-triazonane-1,4-diyl)diacetate [[Ga(14)]+]",cleavage after 6 h,"[4]; natGa complex, pH 7.4, 80 °C",50%
"68Gallium (R)-2,2'-(7-(2-((2-((2-((1-amino-3-(1H-indol-3-yl)-1-oxopropan-2-yl)amino)-2-oxoethyl)amino)-2-oxoethyl)amino)-2-oxoethyl)-1,4,7-triazonane-1,4-diyl)diacetate [[Ga(10)]+]",half-life of model tripeptide,[1],not observed
same,half-life of model tripeptide,[2],not obser ved
same,hydrolysis of the Ga complex,"[4]; pH 4.5, 80 °C",hydrolyzed
same,hydrolysis of the Ga complex,"[4]; pH > 5, 80 °C",inert
same,autolytic release of [67Ga]Ga(NOTA),[3]; 37 °C and pH 7.4,no significant autolytic release
same,autolytic release of [67Ga]Ga(NOTA),[3]; 80 °C and pH 7.4,no significant autolytic release
same,half-life of model tripeptide,[3],not observed
